Experiments:
[1] = WST-1 proliferation assay, PANC-1; type: cell-based; conditions: human, PANC-1 cells (pancreas epithelioid carcinoma), vs 0.1% DMSO control = 100%, mean ± standard deviation
Method: A thorough analysis of antiproliferative activity was performed across various cell culture types representing different histotypes: leukemia (Jurkat, MOLT-4), lung adenocarcinoma (A549), colorectal adenocarcinoma (HT-29), pancreatic carcinoma (PANC-1), breast adenocarcinoma (MCF-7), osteosarcoma (SAOS-2), and one non-cancerous cell line (fetal lung fibroblasts MRC-5). The cell lines were exposed to the newly synthesized compounds at a concentration of 100 μM for 48 h in a single-dose treatment. Changes in cell proliferation compared to the vehicle 0.1% dimethyl sulfoxide (DMSO) control were determined using the WST-1 assay, which is based on mitochondrial dehydrogenase metabolic activities. […] The overall cytotoxic activity of each compound was expressed as growth percent (GP) – the mean of the proliferation of all cell lines treated with the same compound.
Selected human tumor and non-tumor cell lines Jurkat (acute T-cell leukemia), MOLT-4 (acute lymphoblastic leukemia), A549 (lung carcinoma), HT-29 (colorectal adenocarcinoma), PANC-1 (pancreas epithelioid carcinoma), MCF-7 (breast adenocarcinoma), SAOS-2 (osteosarcoma) and MRC-5 (normal lung fibroblasts) were purchased from either American Type Culture Collection (ATCC; VA, USA) or Sigma-Aldrich (St. Louis, MO, USA) and cultured according to the provider's culture method guidelines. All cell lines were maintained at 37 °C in a humidified 5% carbon dioxide and 95% air incubator. Cells in the maximum range of either 10 passages for the adherent cell lines (A549, HT-29, PANC-1, MCF-7, SAOS-2, and MRC-5), or 20 passages for suspension cell lines (Jurkat, MOLT-4,) and in an exponential growth phase were used for this study. Screening of the antiproliferative effect and growth percent calculation were conducted as follows: each cell line was seeded at previously established optimal density (1–50 × 10^3 cells per well) in a 96-well plate (TPP, Trasadingen, Switzerland) and cells were allowed to settle overnight. Cells were treated for 48 h with compounds at a final concentration of 100 μM. At the end of the cultivation period, the WST-1 proliferation assay (Roche, Basel, Switzerland) was performed according to the manufacturer's protocol. The absorbance was measured at 440 nm using a Tecan Spark multimode microplate reader (Tecan, Mannedorf, Switzerland). Each value is the mean of three independent experiments and represents the percentage of proliferation (100% cell proliferation for 0.1% DMSO mock-treated control cells). The GP value was calculated for each compound tested. GP represents the mean of the percentage proliferation decrease of all cell lines treated with the same compound.

[2] = test system: Whole blood from healthy human donors; experiment: Dicentric chromosome assay (DCA); type: cell-based; conditions: 3 Gy gamma
Method: The radioprotective effect of eight compounds was assessed using the cytogenetic method of DCA. DCA is known for its high sensitivity to radiation exposure and its specificity, and is thus considered a gold standard for biological dosimetry. It is also applicable to reveal the radioprotective potential of substances, as their effect is to protect DNA from forming dicentric chromosomes after IR exposure. This assay included six newly synthesized substances as well as amifostine (WR2721) and its active form (WR1065). WR2721 and WR1065 served as benchmarks, allowing us to measure the radioprotective effect of our compounds against these well-established radioprotectors. Whole blood from healthy human donors was utilized for DCA, and it was irradiated with 3 Gy gamma radiation after exposure to the tested compounds. Each experiment included irradiated and non-irradiated controls. The experiments were conducted at two different concentrations of the substances. For the newly synthesized compounds, 100 μM and an optimal non-toxic concentration which varied between 200–1000 μM were used. […] The results were interpreted as the number of dicentric chromosomes per cell.
To express the radioprotective effect the radioprotection factor (RF) was calculated as the […] (Table 2). RF expresses how many-fold the DC count in the sample decreased compared to the irradiated control.
Blood samples from healthy male donors were taken in heparinized tubes, with informed consent and the approval of a local ethics committee. Blood samples (1 ml) were treated with eight different substances (WR2721, WR1065, and 1–6) in two different concentrations. Non-treated irradiated and non-treated non-irradiated controls were included. All samples were exposed to a single dose of 3 Gy of gamma radiation (at the dose rate of 0.6 Gy min^−1, using the ^60Co Chisobalt, Chirana, Prague, Czech Republic). […] The dose of 3 Gy was selected to ensure a sufficient quantity of dicentric chromosomes in lymphocytes. Immediately after irradiation, the samples were placed in a humidified atmosphere with 5% CO2 at 37 °C for 30 min. Treated and irradiated blood samples were added to T-25 cultivation flasks containing 10 ml RPMI 1640 with 20% fetal bovine serum and 2% phytohaemagglutinin (all Gibco by Thermo Fisher Scientific, Waltham, MA, USA). Colcemid at a final concentration of 0.25 μg ml^−1 (Gibco by Thermo Fisher Scientific, Waltham, MA, USA) was added to each culture tube 48 h after culture initiation. Cells were cultivated for another 2 h and then harvested.
At the harvest time (total time 50 h), cell pellets obtained after centrifugation at 600 × g for 3 min were resuspended and treated with 10 ml of prewarmed 0.075 M solution of potassium chloride (Gibco by Thermo Fisher Scientific, Waltham, MA, USA) for 20 min. After another centrifugation, cells were treated three times with fixative solution consisting of 3 : 1 (v/v) methanol : acetic acid (penta Chemicals, Prague, Czech Republic). Fixed cells were dropped on ice-cold microscope slides, air-dried overnight, and stained with 5% Giemsa solution (P-Lab, Prague, Czech Republic) for 6 min. Prepared slides were evaluated using automated metaphase finding systems. The slides with metaphases were analyzed by Axio Imager 2 (Carl Zeiss Microscopy GmbH, Göttingen, Germany) and Metafer 4 software (MetaSystems Hard & Software GmbH, Altlußheim, Germany). At first, the images of the metaphases in lower magnification were acquired (MSearch TL mode). Following that, the images of good-quality metaphases in higher resolution were acquired (AutoCapt mode). The data obtained were analyzed manually (manual selection of good-quality metaphases and dicentric chromosome detection).

[3] = 100 μM, 60 min pre-exposure, lower concentrations experiment
[4] = 500 μM (optimal non-toxic concentration), 60 min pre-exposure
[5] = 10 μM, 30 min pre-exposure, lower concentrations experiment
[6] = 100 μM, 30 min pre-exposure, higher concentrations experiment

Row | Compound | viability at 48 h, 100 µM [1] [%] | RF (radioprotection factor) [2, 3] | RF (radioprotection factor) [2, 4] | RF (radioprotection factor) ([2]; 200 μM (optimal non-toxic concentration), 60 min pre-exposure) | RF (radioprotection factor) [2, 5] | RF (radioprotection factor) [2, 6]
1 | COc1cc([N+](=O)[O-])ccc1OCC(O)CN1CCN(CCO)CC1 (centres unmarked) [Compound 1, 1-(4-(2-Hydroxyethyl)piperazin-1-yl)-3-(2-methoxy-4-nitrophenoxy)propan-2-ol] | 108 ± 3 | 1.42 | 1.97 | – | – | –
2 | COc1ccc(OCC(O)CN2CCN(CCO)CC2)c([N+](=O)[O-])c1 (centres unmarked) [Compound 2, 1-(4-(2-Hydroxyethyl)piperazin-1-yl)-3-(4-methoxy-2-nitrophenoxy)propan-2-ol] | 104 ± 3 | 1.23 | 1.97 | – | – | –
3 | O=[N+]([O-])c1ccc(OCC(O)CN2CCN(CCO)CC2)c(F)c1 (centres unmarked) [Compound 3, 1-(4-(2-Hydroxyethyl)piperazin-1-yl)-3-(2-fluoro-4-nitrophenoxy)propan-2-ol] | 90 ± 4 | 2.43 | 4.16 | – | – | –
4 | OCCN1CCN(CC(O)COc2ccc(F)cc2)CC1 (centres unmarked) [Compound 4, 1-(4-(2-Hydroxyethyl)piperazin-1-yl)-3-(4-fluorophenoxy)propan-2-ol] | 97 ± 1 | 1.65 | – | – | – | –
5 | O=[N+]([O-])c1cc(OCC(O)CN2CCN(CCO)CC2)ccc1Cl (centres unmarked) [Compound 5, 1-(4-(2-Hydroxyethyl)piperazin-1-yl)-3-(4-chloro-3-nitrophenoxy)propan-2-ol] | 100 ± 3 | 1.65 | – | 1.91 | – | –
6 | OCCN1CCN(CC(O)COc2cccc(Cl)c2)CC1 (centres unmarked) [Compound 6, 1-(4-(2-Hydroxyethyl)piperazin-1-yl)-3-(3-chlorophenoxy)propan-2-ol] | 94 ± 3 | 2.1 | 2.69 | – | – | –
7 | NCCCNCCS [WR1065, reference compound] | 3 ± 1 | – | – | – | 1.59 | 1.96
8 | NCCCNCCSP(=O)(O)O [WR2721, amifostine, reference compound] | 8 ± 4 | – | – | – | 1.33 | 1.45

Source: PMC11324046, “Second-generation piperazine derivatives as promising radiation countermeasures” (RSC Medicinal Chemistry, 2024)
